Results as given in PubChem BioAssay AID2060493 (Molecular Pharmacology Branch, DTP, NCI, 2025).

System: 616215-338-R-J1-PDC tumor spheroids, viability
Test: Anticancer human tumor 616215-338-R-J1-PDC patient-derived colon adenocarcinoma cell line growth inhibition [GQUAD]
Conditions: spheroids with HUVEC and MSC; for IC50: curve of first compound; for viability, T/C: stronger effect = lower value
Method in brief: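 Viability of tumor cells grown as complex spheroids with endothelial and stromal cells, exposed to drug combinations. Top concentration at or near clinical Cmax (else 10 microM), diluted in half-log increments.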

[1] = second compound 0.0316 µM, first compound 0.0316 µM
[2] = second compound 0.0316 µM, first compound 0.316 µM
[3] = second compound 0.1 µM, first compound 0.0316 µM
[4] = second compound 0.1 µM, first compound 0.316 µM
[5] = second compound 0.316 µM, first compound 0.0316 µM
[6] = second compound 0.316 µM, first compound 0.316 µM
[7] = second compound 1 µM, first compound 0.0316 µM
[8] = second compound 1 µM, first compound 0.316 µM
[9] = second compound 3.16 µM, first compound 0.0316 µM
[10] = second compound 3.16 µM, first compound 0.316 µM
[11] = second compound 10 µM, first compound 0.0316 µM
[12] = second compound 10 µM, first compound 0.316 µM
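Note: spheroids exposed to agents for 7 days before readout.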
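Throughout, for viability, T/C: percent viability relative to DMSO vehicle control wells taken as 100%.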

Structure (SMILES): O=c1[nH]cc(F)c(=O)[nH]1 + CN(C)c1ccc(Nc2c3ccc(NC(=O)CCN4CCCC4)cc3nc3cc(NC(=O)CCN4CCCC4)ccc23)cc1
- IC50 (second compound 0.0316 µM): 663 nM
- IC50 (second compound 0.1 µM): 505 nM
- IC50 (second compound 0.316 µM): 455 nM
- IC50 (second compound 1 µM): 562 nM
- IC50 (second compound 3.16 µM): 383 nM
- IC50 (second compound 10 µM): 373 nM
- viability, T/C [1]: 98.4%
- viability, T/C (second compound 0.0316 µM, first compound 0.1 µM): 89.3%
- viability, T/C [2]: 66.6%
- viability, T/C (second compound 0.0316 µM, first compound 1 µM): 39.8%
- viability, T/C (second compound 0.0316 µM, first compound 3.16 µM): 36.4%
- viability, T/C (second compound 0.0316 µM, first compound 10 µM): 32.8%
- viability, T/C [3]: 95.3%
- viability, T/C (second compound 0.1 µM, first compound 0.1 µM): 94.3%
- viability, T/C [4]: 58.8%
- viability, T/C (second compound 0.1 µM, first compound 1 µM): 38%
- viability, T/C (second compound 0.1 µM, first compound 3.16 µM): 38.1%
- viability, T/C (second compound 0.1 µM, first compound 10 µM): 33.9%
- viability, T/C [5]: 93.9%
- viability, T/C (second compound 0.316 µM, first compound 0.1 µM): 81.2%
- viability, T/C [6]: 54.5%
- viability, T/C (second compound 0.316 µM, first compound 1 µM): 39.6%
- viability, T/C (second compound 0.316 µM, first compound 3.16 µM): 36.7%
- viability, T/C (second compound 0.316 µM, first compound 10 µM): 32.8%
- viability, T/C [7]: 101%
- viability, T/C (second compound 1 µM, first compound 0.1 µM): 86.4%
- viability, T/C [8]: 59.2%
- viability, T/C (second compound 1 µM, first compound 1 µM): 41.6%
- viability, T/C (second compound 1 µM, first compound 3.16 µM): 31.2%
- viability, T/C (second compound 1 µM, first compound 10 µM): 33.6%
- viability, T/C [9]: 84.5%
- viability, T/C (second compound 3.16 µM, first compound 0.1 µM): 83.8%
- viability, T/C [10]: 52.5%
- viability, T/C (second compound 3.16 µM, first compound 1 µM): 38%
- viability, T/C (second compound 3.16 µM, first compound 3.16 µM): 32%
- viability, T/C (second compound 3.16 µM, first compound 10 µM): 34%
- viability, T/C [11]: 87.6%
- viability, T/C (second compound 10 µM, first compound 0.1 µM): 71.3%
- viability, T/C [12]: 52.4%
- viability, T/C (second compound 10 µM, first compound 1 µM): 38.9%
- viability, T/C (second compound 10 µM, first compound 3.16 µM): 38.3%
- viability, T/C (second compound 10 µM, first compound 10 µM): 35.5%

Structure (SMILES): Cn1ncnc1[C@H]1c2n[nH]c(=O)c3cc(F)cc(c23)N[C@@H]1c1ccc(F)cc1 + Cc1[nH]c2ccc(F)cc2c1-c1nc2c3cccnc3c3ncccc3c2[nH]1
- IC50 (second compound 0.0316 µM): > 316 nM
- IC50 (second compound 0.1 µM): > 316 nM
- IC50 (second compound 0.316 µM): > 316 nM
- IC50 (second compound 1 µM): > 316 nM
- IC50 (second compound 3.16 µM): > 316 nM
- IC50 (second compound 10 µM): > 316 nM
- viability, T/C (second compound 0.0316 µM, first compound 0.000999 µM): 104%
- viability, T/C (second compound 0.0316 µM, first compound 0.00316 µM): 98.2%
- viability, T/C (second compound 0.0316 µM, first compound 0.00999 µM): 97%
- viability, T/C [1]: 92.5%
- viability, T/C (second compound 0.0316 µM, first compound 0.0999 µM): 97.1%
- viability, T/C [2]: 94.7%
- viability, T/C (second compound 0.1 µM, first compound 0.000999 µM): 106%
- viability, T/C (second compound 0.1 µM, first compound 0.00316 µM): 89.1%
- viability, T/C (second compound 0.1 µM, first compound 0.00999 µM): 94.2%
- viability, T/C [3]: 102%
- viability, T/C (second compound 0.1 µM, first compound 0.0999 µM): 105%
- viability, T/C [4]: 87.4%
- viability, T/C (second compound 0.316 µM, first compound 0.000999 µM): 92.7%
- viability, T/C (second compound 0.316 µM, first compound 0.00316 µM): 103%
- viability, T/C (second compound 0.316 µM, first compound 0.00999 µM): 92.9%
- viability, T/C [5]: 103%
- viability, T/C (second compound 0.316 µM, first compound 0.0999 µM): 83.3%
- viability, T/C [6]: 95.3%
- viability, T/C (second compound 1 µM, first compound 0.000999 µM): 100%
- viability, T/C (second compound 1 µM, first compound 0.00316 µM): 95.7%
- viability, T/C (second compound 1 µM, first compound 0.00999 µM): 91.2%
- viability, T/C [7]: 104%
- viability, T/C (second compound 1 µM, first compound 0.0999 µM): 96%
- viability, T/C [8]: 95.6%
- viability, T/C (second compound 3.16 µM, first compound 0.000999 µM): 101%
- viability, T/C (second compound 3.16 µM, first compound 0.00316 µM): 97.3%
- viability, T/C (second compound 3.16 µM, first compound 0.00999 µM): 85.6%
- viability, T/C [9]: 93.2%
- viability, T/C (second compound 3.16 µM, first compound 0.0999 µM): 106%
- viability, T/C [10]: 87.3%
- viability, T/C (second compound 10 µM, first compound 0.000999 µM): 93.3%
- viability, T/C (second compound 10 µM, first compound 0.00316 µM): 95.4%
- viability, T/C (second compound 10 µM, first compound 0.00999 µM): 88%
- viability, T/C [11]: 78.5%
- viability, T/C (second compound 10 µM, first compound 0.0999 µM): 116%
- viability, T/C [12]: 78.6%
